In publication PMC9774391 (ACS Omega, 2022):

Assays:
Conditions in all cases: for inhibition at 1000 µM: 10^–3 M; for inhibition at 100 µM: 10^–4 M
MAO-A = target: T1, MAO-A (Homo sapiens, UniProt P21397); assay: In vitro MAO-A inhibition assay (fluorometric); format: biochemical
T1 sequence (P21397 1-527): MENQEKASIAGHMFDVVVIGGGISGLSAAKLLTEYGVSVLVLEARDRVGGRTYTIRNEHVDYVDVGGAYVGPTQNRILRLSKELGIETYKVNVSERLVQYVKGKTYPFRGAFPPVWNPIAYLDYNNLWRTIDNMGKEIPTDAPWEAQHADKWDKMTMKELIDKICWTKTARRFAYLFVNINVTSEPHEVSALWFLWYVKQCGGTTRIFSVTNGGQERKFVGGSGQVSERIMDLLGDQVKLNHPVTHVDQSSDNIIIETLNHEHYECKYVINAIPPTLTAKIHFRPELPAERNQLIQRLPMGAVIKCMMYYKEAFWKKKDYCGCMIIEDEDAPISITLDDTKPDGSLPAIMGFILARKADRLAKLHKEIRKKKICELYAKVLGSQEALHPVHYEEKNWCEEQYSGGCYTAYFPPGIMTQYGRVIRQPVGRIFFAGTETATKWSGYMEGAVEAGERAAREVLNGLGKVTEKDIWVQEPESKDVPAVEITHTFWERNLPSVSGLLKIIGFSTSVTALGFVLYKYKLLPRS

MAO-B = target: T2, MAO-B (Homo sapiens, UniProt P27338); assay: In vitro MAO-B inhibition assay (fluorometric); format: biochemical
T2 sequence (P27338 1-520): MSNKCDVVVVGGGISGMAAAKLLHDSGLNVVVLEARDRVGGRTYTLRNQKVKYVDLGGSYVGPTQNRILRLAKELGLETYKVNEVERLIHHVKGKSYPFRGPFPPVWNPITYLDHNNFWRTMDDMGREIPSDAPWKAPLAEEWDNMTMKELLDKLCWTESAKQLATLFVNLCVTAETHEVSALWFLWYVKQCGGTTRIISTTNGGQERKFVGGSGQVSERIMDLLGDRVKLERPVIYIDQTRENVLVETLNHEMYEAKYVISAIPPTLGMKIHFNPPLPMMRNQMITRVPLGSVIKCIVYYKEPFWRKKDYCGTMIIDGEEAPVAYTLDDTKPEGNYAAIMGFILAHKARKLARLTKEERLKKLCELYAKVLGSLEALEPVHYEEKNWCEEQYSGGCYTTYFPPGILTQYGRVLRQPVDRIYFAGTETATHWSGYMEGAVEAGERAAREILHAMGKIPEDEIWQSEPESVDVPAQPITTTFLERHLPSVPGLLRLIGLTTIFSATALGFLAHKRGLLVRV

BChE = BChE (Homo sapiens, UniProt P06276); assay: biochemical
Method: (§1) According to the modified Ellman approach outlined in our team’s earlier work, the AChE and BChE inhibitory activities of the obtained compounds were evaluated.[18]−[21]

AChE = AChE (Homo sapiens, UniProt P22303); assay: biochemical
Method: as §1

AChE, sequence (P22303 32-614): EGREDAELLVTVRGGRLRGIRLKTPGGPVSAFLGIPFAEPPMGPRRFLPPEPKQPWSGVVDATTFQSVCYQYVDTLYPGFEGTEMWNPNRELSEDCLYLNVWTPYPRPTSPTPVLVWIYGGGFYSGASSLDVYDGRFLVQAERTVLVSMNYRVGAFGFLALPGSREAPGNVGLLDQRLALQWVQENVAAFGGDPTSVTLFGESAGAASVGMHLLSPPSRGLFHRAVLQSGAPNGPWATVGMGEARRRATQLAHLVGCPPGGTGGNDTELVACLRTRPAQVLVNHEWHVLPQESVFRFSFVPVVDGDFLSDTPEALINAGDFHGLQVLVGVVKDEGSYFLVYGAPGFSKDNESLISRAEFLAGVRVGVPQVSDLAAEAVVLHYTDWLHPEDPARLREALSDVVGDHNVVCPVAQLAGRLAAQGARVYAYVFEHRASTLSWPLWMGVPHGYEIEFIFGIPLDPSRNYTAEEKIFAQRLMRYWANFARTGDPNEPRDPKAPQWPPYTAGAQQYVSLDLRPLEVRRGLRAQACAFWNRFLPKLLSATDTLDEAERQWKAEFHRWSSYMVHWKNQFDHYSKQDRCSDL
BChE, sequence (P06276 29-602): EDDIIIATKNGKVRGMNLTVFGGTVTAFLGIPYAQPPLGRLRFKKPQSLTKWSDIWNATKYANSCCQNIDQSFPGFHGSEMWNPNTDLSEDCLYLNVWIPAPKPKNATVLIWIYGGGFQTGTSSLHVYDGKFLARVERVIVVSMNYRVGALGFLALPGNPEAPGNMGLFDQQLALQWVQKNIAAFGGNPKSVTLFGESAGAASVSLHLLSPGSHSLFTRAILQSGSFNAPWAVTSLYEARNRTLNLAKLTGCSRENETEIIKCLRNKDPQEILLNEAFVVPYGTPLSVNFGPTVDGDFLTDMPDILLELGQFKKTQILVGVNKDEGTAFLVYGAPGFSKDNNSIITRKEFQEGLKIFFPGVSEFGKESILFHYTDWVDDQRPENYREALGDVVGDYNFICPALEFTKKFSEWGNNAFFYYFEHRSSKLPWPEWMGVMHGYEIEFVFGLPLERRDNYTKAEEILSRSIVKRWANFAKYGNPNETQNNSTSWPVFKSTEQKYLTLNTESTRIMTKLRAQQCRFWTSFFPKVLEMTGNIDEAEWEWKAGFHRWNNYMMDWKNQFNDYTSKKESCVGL

| SMILES | inhibition at 1000 µM (MAO-A) [%] | inhibition at 100 µM (MAO-A) [%] | inhibition at 1000 µM (MAO-B) [%] | inhibition at 100 µM (MAO-B) [%] | inhibition at 1000 µM (BChE) [%] | inhibition at 100 µM (BChE) [%] | inhibition at 1000 µM (AChE) [%] | inhibition at 100 µM (AChE) [%] |
| --- | --- | --- | --- | --- | --- | --- | --- | --- |
| COc1ccc2c(c1)C/C(=C\c1ccc(NC(=O)CN3CCN(C)CC3)cc1)C2=O [D1] | 59 ± 0.598 | 21.4 ± 0.424 | 65.12 ± 0.623 | 38.7 ± 0.512 | 94.6 ± 0.972 | 32.8 ± 0.455 | 83.2 ± 1.09 | 47.3 ± 0.887 |
| COc1ccc2c(c1)C(=O)/C(=C/c1ccc(NC(=O)CN3CCN(C)CC3)cc1)C2 [D2] | 46.6 ± 0.853 | 27.7 ± 0.909 | 75.3 ± 0.987 | 45.3 ± 0.859 | 61.3 ± 0.18 | 23.6 ± 0.226 | 50.3 ± 0.731 | 42.9 ± 0.601 |
| COc1cc2c(cc1OC)C(=O)/C(=C/c1ccc(NC(=O)CN3CCN(C)CC3)cc1)C2 [D3] | 57.5 ± 0.875 | 26.5 ± 0.365 | 67.2 ± 0.751 | 36.2 ± 0.452 | 98.1 ± 1.57 | 40.4 ± 0.548 | 99.3 ± 2.34 | 44.1 ± 0.906 |
| CCN1CCN(CC(=O)Nc2ccc(/C=C3\Cc4cc(OC)ccc4C3=O)cc2)CC1 [D4] | 67.6 ± 1.06 | 20.9 ± 0.455 | 77.1 ± 1.06 | 36.3 ± 0.496 | 92.9 ± 2.41 | 21.21 ± 0.11 | 74.5 ± 1.02 | 38.2 ± 0.479 |
| CCN1CCN(CC(=O)Nc2ccc(/C=C3\Cc4ccc(OC)cc4C3=O)cc2)CC1 [D5] | 66.6 ± 1.49 | 24.7 ± 0.514 | 75.6 ± 1.08 | 44.4 ± 0.627 | 55.6 ± 549 | 26.3 ± 0.211 | 38.6 ± 0.518 | 31.7 ± 0.499 |
| CCN1CCN(CC(=O)Nc2ccc(/C=C3\Cc4cc(OC)c(OC)cc4C3=O)cc2)CC1 [D6] | 93.27 ± 0.309 | 33.9 ± 1.13 | 95.5 ± 1.25 | 48.6 ± 1.13 | 96.51 ± 0.317 | 32.8 ± 0.908 | 97.5 ± 2.23 | 31.3 ± 0.697 |
| C=CCN1CCN(CC(=O)Nc2ccc(/C=C3\Cc4cc(OC)ccc4C3=O)cc2)CC1 [D7] | 61.89 ± 0.618 | 41.4 ± 0.808 | 66.33 ± 0.557 | 47.9 ± 0.952 | 56.8 ± 0.971 | 21.2 ± 0.378 | 61.3 ± 1.01 | 34.8 ± 0.472 |
| C=CCN1CCN(CC(=O)Nc2ccc(/C=C3\Cc4ccc(OC)cc4C3=O)cc2)CC1 [D8] | 57.2 ± 1.34 | 26.6 ± 0.455 | 78.6 ± 1.15 | 46.2 ± 0.547 | 51 ± 0.667 | 28.4 ± 0.409 | 51 ± 0.995 | 42 ± 0.661 |
| C=CCN1CCN(CC(=O)Nc2ccc(/C=C3\Cc4cc(OC)c(OC)cc4C3=O)cc2)CC1 [D9] | 32.6 ± 0.389 | 24.5 ± 0.459 | 58.63 ± 0.523 | 34.8 ± 0.384 | 82.8 ± 1.03 | 28.2 ± 0.679 | 81.3 ± 1.13 | 45.2 ± 0.996 |
| C#CCN1CCN(CC(=O)Nc2ccc(/C=C3\Cc4cc(OC)ccc4C3=O)cc2)CC1 [D10] | 48.9 ± 0.966 | 22.4 ± 0.662 | 68.96 ± 0.578 | 42.6 ± 0.652 | 41.3 ± 0.755 | 26.6 ± 1.35 | 71.3 ± 1.01 | 29.4 ± 0.587 |
| C#CCN1CCN(CC(=O)Nc2ccc(/C=C3\Cc4ccc(OC)cc4C3=O)cc2)CC1 [D11] | 77 ± 1.59 | 25.5 ± 0.52 | 79.6 ± 1.13 | 35.6 ± 0.488 | 91.7 ± 1.21 | 33.9 ± 0.569 | 66.6 ± 0.985 | 49.9 ± 0.809 |
